pIC50: −log10 of the molar value. Marks after values point to notes of the source that are not given here.
Key:
IL-6 [1] = assay: IL-6 release from IL-1β-stimulated primary human corneal fibroblast cells (ELISA); type: cell-based; settings: for % Inhibition of IL-6 (pg/μg dsDNA): 30 min pretreatment, 10 ng/ml IL-1β for 3 hours, normalized to dsDNA
Experimental: Primary human corneal fibroblast cells were obtained from one donor and grown to confluence in Ham's F-10 medium. Fibroblasts were transferred to serum-free media and were pretreated for 30 minutes with various concentrations of 15(S)-HETE. The cells were then stimulated with 10 ng/ml IL-1β for 3 hours and aliquots of the supernatants were assayed for IL-6 by ELISA. Data were normalized by the amount of double stranded DNA (dsDNA) extracted from the cells.

IL-6 [2] = settings: bone marrow stromal cells; cited from earlier work
IL-8 = settings: 1 μM to 0.1 nM; human bone marrow stromal cells; cited from earlier work

CCCCC[C@H](O)/C=C/C=C\C/C=C\C/C=C\CCCC(=O)O [15(S)-HETE, 15-Hydroxyeicosatetraenoic acid]
% Inhibition of IL-6 (pg/μg dsDNA) (IL-6 [1]; 15(S)-HETE 0.5 μg): 53.1% | % Inhibition of IL-6 (pg/μg dsDNA) (IL-6 [1]; 15(S)-HETE 1 μg): 67.9* % | % Inhibition of IL-6 (pg/μg dsDNA) (IL-6 [1]; 15(S)-HETE 2 μg): 88.6** % | % Inhibition of IL-6 (pg/μg dsDNA) (IL-6 [1]; 15(S)-HETE 3 μg): 90.4** % | pIC50 (IL-6 [1]; primary human corneal fibroblast cells, IL-1β stimulated, read-out: IC50 for IL-6 inhibition): > 6.30 | effect on the spontaneous, serum- and cytokine-induced IL-6 synthesis (IL-6 [2]): no effect | effect on the spontaneous and serum-induced production of IL-8 (IL-8): no effect

Reference: US6825232B2, “Use of hydroxyeicosatetraenoic acid compounds to treat ophthalmic inflammatory disorders” (Alcon, Inc., priority 2002, dated 2004)
